Source: PMC5859250, “Contribution of transformation products towards the total herbicide toxicity to tropical marine organisms” (Scientific Reports, 2018)
Converted amounts (≈) assume the structure as drawn.

Assays:
Diporeia spp. = test system: Diporeia spp.; set-up: method as in PMID 19533344; conditions: cited from earlier work
Hyalella azteca = test system: Hyalella azteca; set-up: method as in PMID 19533344; conditions: cited from earlier work
[1] = Herbicide degradation in outdoor tanks with coastal seawater and sediment (330 d); type: physicochemical; conditions: day 330, in tank of the parent herbicide, measured or estimated
Text: Photosystem II herbicides/transformation product solutions were produced by adding herbicides to seawater within separate 120 l outdoor fibreglass tanks, in the presence of natural coastal sediments (further details can be found in Mercurio 2016)[36]. […] The tanks used were previously described in Mercurio et al.[8], with treatment water being partially shaded (70%) and exposed to a maximum of 700 µmol photons m^−2s^−1 over the course of the experiment. The application of a natural diurnal light regime and coastal sediment were previously shown to increase the rates of PSII herbicide degradation and represent more natural conditions than those used in standard degradation tests[8],[36]. Evaporation was minimised with loose-fitting clear acrylic lids and the water continuously circulated using Turbelle Nanostream pumps. Prior to every sampling period evaporation losses were replenished with equal volumes of MilliQ water. The average temperature was 25.7 °C with a range of 15.6–36.6 °C over the course of the study. Unfiltered coastal seawater and sediments were collected from the intertidal zone adjacent to the Australian Institute of Marine Science (19°16′S, 147°03′E), Cape Cleveland, QLD. The sediments were prepared one week prior to use by sieving (>2 mm removed) and thorough mixing. Each tank contained 5 kg of sediment. Physical and chemical information on the seawater and sediments used the treatments can be found in SOM Table 1.
The 20 tanks included replicates for control seawater (n = 4) and the PSII herbicides diuron (n = 4), atrazine (n = 3), simazine (n = 3), hexazinone (n = 3), and ametryn (n = 3). Herbicide treatments and replicates were randomized among tanks. The herbicides were purchased from Sigma Aldrich (>95% purity) and were introduced at ~1 mg l^−1 to enable direct chemical and toxicological testing of the herbicide transformation product mixtures without additional concentration steps. […] The same concentration was used in the controls. Sample collection, internal standard addition, and analytical techniques (HPLC-MS/MS using an AB/Sciex API5500Q mass spectrometer equipped with an electrospray interface and coupled to a Shimadzu Prominence HPLC system) were as previously reported[7],[36]. […] Individual replicates were analysed using HPLC/TripleTOF mass spectrometry for possible transformation products as described in Mercurio 2016[36]. Briefly, 0.2 µm-filtered samples were directly injected into an ABSciex API5600+ Triple TOF mass spectrometer (ABSciex, Concord, Ontario, Canada) equipped with an electrospray (TurboV) interface coupled to a Shimadzu Nexera HPLC system (Shimadzu Corp., Kyoto, Japan). Separation was achieved using a 4 micron 50 × 2.0 mm Phenomenex Synergi Fusion RP column (Phenomenex, Torrance, CA) run at 45 °C, and a flow rate of 0.4 mL min^−1 with a linear gradient starting at 8% B for 0.5 minutes, ramped to 100% B in 8 minutes then held at 100% for 2.0 minutes followed by equilibration at 8% B for 2.5 minutes (A = 1% methanol in HPLC grade water, B = 95% methanol in HPLC grade water, both containing 0.1% acetic acid). The mass spectrometer was operated in positive ion SWATH mode. Briefly this mode comprises a TOF scan of 50 millisecond duration followed by small segments of the mass range being transmitted through the quadrupole, fragmented in the collision cell and full TOF mass spectra taken of the transformation products. Data from these experiments was examined using the Masterview software (ABSciex).
Potential transformation products identified using TOF mass spectrometry and other potential transformation products identified from literature were then re-examined by HPLC/ triple quadrupole mass spectrometry using multiple reaction monitoring. Product ions used were as identified from QTOF data or from literature references and parameters such as collision energy optimised by repeated injections of samples for compounds detected. […]

Brachionus plicatilis = test system: Brachionus plicatilis; set-up: method as in PMID 1722733; conditions: cited from earlier work
Brachionus calyciflorus = test system: Brachionus calyciflorus; set-up: method as in PMID 1722733; conditions: cited from earlier work
[2] = test system: Phaeodactylum tricornutum; set-up: method as in PMID 20800855; conditions: cited from earlier work
Navicula sp. = test system: Navicula sp.; set-up: method as in PMID 20800855; conditions: cited from earlier work
Nephroselmis pyriformis = test system: Nephroselmis pyriformis; set-up: method as in PMID 20800855; conditions: cited from earlier work
Cylindrotheca closterium = test system: Cylindrotheca closterium; set-up: method as in PMID 20800855; conditions: cited from earlier work

Row | Compound | 96-hour LC50 (Diporeia spp.) | 96-hour LC50 (Hyalella azteca) | Transformation product concentration ([1]; listed as Desisopropyl Atrazine) | LC50 (Brachionus plicatilis) | Transformation product concentration [1] | LC50 (Brachionus calyciflorus) | IC10 [2] | IC10 (Navicula sp.) | IC10 (Nephroselmis pyriformis) | IC10 (Cylindrotheca closterium)
1 | CCNc1nc(N)nc(Cl)n1 [DIA, desisopropylatrazine] | > 3 µg/mL | > 3 µg/mL | 5.1 µg/L |  |  |  |  |  |  | 
2 | Nc1ccc(Cl)c(Cl)c1 [3,4-DCA, 3,4-dichloroaniline] |  |  |  | ~ 60 mg l^−1 | 2.1 µg/L | ~ 60 mg l^−1 |  |  |  | 
3 | CC(C)Nc1nc(N)nc(Cl)n1 [DEA, desethylatrazine] |  |  |  |  | 36 µg/L |  | 0.046 µg/mL (≈ 0.245 µM) | 0.111 µg/mL (≈ 0.592 µM) | 0.0266 µg/mL (≈ 0.142 µM) | 0.102 µg/mL (≈ 0.544 µM)
